Results reported in patent US11510859B2, “Method for improving aqueous solubility of water-insoluble or slightly water-soluble drugs” (MARINOMED BIOTECH AG, priority 2015, dated 2022).

Tests used:
porcine nasal mucosa = test: Ex vivo penetration of fluticasone propionate into porcine nasal mucosa; assay type: in vitro ADME; conditions: 5 μg/ml; 0.03% escin, 3% propylene glycol, 5% dexpanthenol vs suspension without saponin; 15-60 min
Protocol: In order to test for the bioavailability of compositions prepared in accordance with the present invention, experiments were conducted ex vivo wherein an experimental composition comprising fluticasone propionate as a compound of interest was compared to a composition comprising the same compound at the same concentration but without a saponin as a solubilization enhancer.
FIG. 14 represents the concentrations of fluticasone propionate penetrated ex-vivo into porcine nasal mucosa at different time points. The experimental composition comprised 5 μg/ml fluticasone propionate dissolved in aqueous buffer comprising 0.03% escin, 3% propylene glycol and 5% dexpanthenol. The comparative specimen was a suspension comprising the same aqueous buffer and no saponin nor dexpanthenol. Both formulations were added ex-vivo onto surgically extracted porcine nasal mucosa. After 15, 30, 45 and 60 minutes of incubation the mucosa was washed and the amount of permeated fluticasone propionate was determined by HPLC-MS/MS. • A—experimental composition; • B—comparative fluticasone propionate suspension; • x-axis=incubation time in minutes; • y-axis=ng fluticasone propionate/g tissue.

[1] = Solubility of fluticasone propionate in 0.25x McIlvaine buffer (Examples 10, 11); assay type: physicochemical
Protocol: 0% Propylene glycol • B . . . 5% Propylene glycol • C . . . 10% Propylene glycol • * . . . w/v % Escin • # . . . v/v % Dexpanthenol • y-axis . . . concentration of dissolved fluticasone propionate
FIG. 7 represents the impact of dexpanthenol and saponin concentration on the dissolution of fluticasone propionate in 0.25× McIlvaine buffer containing 5% propylene glycol (maximum concentration achieved=5 μg/ml). […] The presence of 5% dexpanthenol seems to deliver solubility boosting effects. • A . . . 0% Dexpanthenol • B . . . 5% Dexpanthenol • y-axis . . . concentration of dissolved fluticasone propionate • x-axis . . . % Glycyrrhizin

[2] = Saturation concentrations of drugs in buffered solvent, HPLC of supernatant (Example 4); assay type: physicochemical; conditions: McIlvaine buffer pH 6.0; compound pre-dissolved in propylene glycol
Protocol: 250 μl “McIlvaine 0.1%” were mixed with 50 μl dexpanthenol stock solution, brought to 900 μl with distilled water, and combined and vigorously mixed with 100 μl experimental compound pre-dissolved resp. pre-suspended in propylene glycol. Alternative solutions with compound pre-dilutions/pre-suspensions in DMSO were prepared. Samples were centrifuged for 10 min at 15800 rcf. Aliquots of the clear supernatants were transferred into autosampler glass vials and the content of the dissolved experimental compounds was analyzed by HPLC using isocratic elution with 70% or 80% acetonitrile 0.01% TFA/[…] or 30% water 0.01% TFA at 1 ml/min and 50° C. for 10 min on an Agilent Zorbax Eclipse Plus C18 column (3.5 μm, 4.6×150 mm) and UV absorbance detection at the wavelengths appropriate for the respective experimental compound.

[3] = Fluticasone propionate solubility in the presence of hyaluronic acid (Examples 3, 14); assay type: physicochemical; conditions: 5% propylene glycol, 7.5 g/l hyaluronic acid; one month storage at ambient temperature
Protocol: Samples of series A (0% dexpanthenol): 2.5 ml solution containing the respective escin concentration (McIlvaine 0.01%, 0.02%, 0.03% or McIlvaine buffer) were mixed with 3.6 ml hyaluronic acid stock solution and 0.5 ml Fluticasone propionate pre-solution and filled up to 10 ml with distilled water. Samples of series B (2% dexpanthenol): 2.5 ml solution containing the respective escin concentration (McIlvaine 0.01%, 0.02%, 0.03% or McIlvaine buffer) were mixed with 0.2 ml dexpanthenol, 3.6 ml Hyaluronic acid stock solution and 0.5 ml fluticasone propionate pre-solution and filled up to 10 ml with distilled water. […]
After 1 month storage at room temperature, samples were taken and centrifuged for 11 min at 15700 rcf. The clear supernatant was filled into glass vials and the concentration of dissolved FP (maximal 5 μg/ml) was measured in duplicates by HPLC.
Fluticasone propionate in the presence of hyaluronic acid was analyzed by RP-HPLC (UV absorbance detection at 235 nm) using a gradient from 5% acetonitrile to 90% acetonitrile in water containing 0.01% TFA (see detailed gradient description below).
Solvent A: water HPLC gradient grade 0.01% trifluoroacetic acid. […] From the fluticasone propionate containing samples 40 μl each were injected and analyzed. […]

[4] = U.S. Pat. No. 4,868,170; cited from earlier work

Row | concentration of drug permeated into mucosal tissue, experimental composition versus comparative suspension (porcine nasal mucosa) | best achieved concentration without saponin relative to maximum concentration with at least 0.03% escin ([1]; 0.25x McIlvaine buffer pH 6, propylene glycol 0-10%, dexpanthenol 0-5%) | maximum concentration achieved ([1]; 0.25x McIlvaine buffer, 5% propylene glycol, glycyrrhizin, dexpanthenol 0% or 5%) | Saturation concentration in 10% propylene glycol or DMSO without escin or dexpanthenol [2] | Saturation concentration in 10% propylene glycol or DMSO, 0.1% escin and 5% dexpanthenol [2] | SMILES | effect of dexpanthenol on fluticasone propionate solubility in the presence of escin [3] | aqueous solubility [4]
1 | around five times higher | about 50% | 5 µg/mL | 0.68 µg/mL | 5 µg/mL | CCC(=O)O[C@]1(C(=O)SCF)[C@H](C)C[C@H]2[C@@H]3C[C@H](F)C4=CC(=O)C=C[C@]4(C)[C@@]3(F)[C@@H](O)C[C@@]21C [Fluticasone propionate] | synergistically boost the solubility enhancing activity of escin | –
2 | – | – | – | – | – | CCS[C@]1(SC)CC[C@H]2[C@@H]3CCC4=CC(=O)C=C[C@]4(C)[C@@]3(F)[C@@H](O)C[C@@]21C [tipredane] | – | less than 0.2 mg/l
